Values after ≈ are worked out from the molar mass of the structure shown.
Columns and labels:
Pseudomonas aeruginosa [1] = assay: Antimicrobial activity against Pseudomonas aeruginosa 1592E isolate after 18 hrs; assay type: functional
Escherichia coli [2] = assay: Antimicrobial activity against Escherichia coli DC2 isolate after 18 hrs; assay type: functional
Escherichia coli [3] = assay: Antimicrobial activity against Escherichia coli 1507E isolate after 18 hrs; assay type: functional
Pseudomonas aeruginosa [4] = assay: Antimicrobial activity against Pseudomonas aeruginosa 9027 isolate after 18 hrs; assay type: functional
Staphylococcus aureus [5] = assay: Antimicrobial activity against Staphylococcus aureus SG511 isolate after 18 hrs; assay type: functional
Pseudomonas aeruginosa [6] = assay: Antimicrobial activity against Pseudomonas aeruginosa 1771M isolate after 18 hrs; assay type: functional
Enterobacter cloacae [7] = assay: Antimicrobial activity against Enterobacter cloacae 1321E after 18 hrs; assay type: functional
Escherichia coli [8] = assay: Antimicrobial activity against Escherichia coli TEM isolate after 18 hrs; assay type: functional
Klebsiella oxytoca = assay: Antimicrobial activity against Klebsiella oxytoca 1082E after 18 hrs; assay type: functional
Streptococcus pyogenes [9] = assay: Antimicrobial activity against Streptococcus pyogenes 308A isolate after 18 hrs; assay type: functional
Escherichia coli [10] = assay: Antimicrobial activity against Escherichia coli DC0 isolate after 18 hrs; assay type: functional
SK-MEL-2 = assay: Cytotoxicity against human SK-MEL-2 cells; assay type: functional; settings: read-out: ED50 (the source's name)
Streptococcus pyogenes [11] = assay: Antimicrobial activity against Streptococcus pyogenes 77A isolate after 18 hrs; assay type: functional
Staphylococcus aureus [12] = assay: Antimicrobial activity against Staphylococcus aureus 285 isolate after 18 hrs; assay type: functional
Escherichia coli [13] = assay: Antimicrobial activity against Escherichia coli 078 isolate after 18 hrs; assay type: functional
SK-OV-3 = assay: Cytotoxicity against human SKOV3 cells; assay type: functional; settings: read-out: ED50 (the source's name)
Salmonella typhimurium = assay: Antimicrobial activity against Salmonella Typhimurium after 18 hrs; assay type: functional, Salmonella enterica subsp. enterica serovar Typhimurium; settings: Salmonella enterica
Klebsiella aerogenes = assay: Antimicrobial activity against Klebsiella aerogenes 1522E after 18 hrs; assay type: functional
Staphylococcus aureus [14] = assay: Antimicrobial activity against Staphylococcus aureus 503 isolate after 18 hrs; assay type: functional
XF498 = assay: Cytotoxicity against human XF498 cells; assay type: functional; settings: read-out: ED50 (the source's name)
Pseudomonas aeruginosa [15] = assay: Antimicrobial activity against Pseudomonas aeruginosa 1771 isolate after 18 hrs; assay type: functional
Enterobacter cloacae [16] = assay: Antimicrobial activity against Enterobacter cloacae P99 after 18 hrs; assay type: functional
A549 = assay: Cytotoxicity against human A549 cells; assay type: functional; settings: read-out: ED50 (the source's name)
HCT-15 = assay: Cytotoxicity against human HCT15 cells; assay type: functional; settings: read-out: ED50 (the source's name)
Enterococcus faecium = assay: Antimicrobial activity against Streptococcus faecium MD8b isolate after 18 hrs; assay type: functional

Row | MIC (Pseudomonas aeruginosa [1]) | MIC (Escherichia coli [2]) | MIC (Escherichia coli [3]) | MIC (Pseudomonas aeruginosa [4]) | MIC (Staphylococcus aureus [5]) | MIC (Pseudomonas aeruginosa [6]) | MIC (Enterobacter cloacae [7]) | MIC (Escherichia coli [8]) | MIC (Klebsiella oxytoca) | MIC (Streptococcus pyogenes [9]) | MIC (Escherichia coli [10]) | MIC (Streptococcus pyogenes [11]) | MIC (Staphylococcus aureus [12]) | MIC (Escherichia coli [13]) | MIC (Pseudomonas aeruginosa [15]) | SMILES | EC50 (SK-MEL-2) | EC50 (SK-OV-3) | EC50 (XF498) | EC50 (A549) | EC50 (HCT-15) | further results
1 | 25 µg/mL (≈ 57.3 µM) | > 25 µg/mL | > 25 µg/mL | > 25 µg/mL | > 25 µg/mL | > 25 µg/mL | > 25 µg/mL | > 25 µg/mL | > 25 µg/mL | 25 µg/mL (≈ 57.3 µM) | > 25 µg/mL | 25 µg/mL (≈ 57.3 µM) | > 25 µg/mL | > 25 µg/mL | 25 µg/mL (≈ 57.3 µM) | CC(C)[C@@H](O)CC[C@@H](C)[C@H]1C[C@@H](O)[C@H]2[C@@H]3C[C@H](O)[C@H]4C[C@@H](O)CC[C@]4(C)[C@H]3CC[C@@]21C [CERTONARDOSTEROL F] | 3.8 µg/mL (≈ 8.7 µM) | 4.4 µg/mL (≈ 10.1 µM) | 4.3 µg/mL (≈ 9.85 µM) | 3.8 µg/mL (≈ 8.7 µM) | 5.5 µg/mL (≈ 12.6 µM) | MIC (Salmonella typhimurium): > 25 µg/mL; MIC (Klebsiella aerogenes): > 25 µg/mL; MIC (Staphylococcus aureus [14]): > 25 µg/mL; MIC (Enterobacter cloacae [16]): > 25 µg/mL; MIC (Enterococcus faecium): > 25 µg/mL
2 | > 25 µg/mL | > 25 µg/mL | > 25 µg/mL | > 25 µg/mL | > 25 µg/mL | 25 µg/mL (≈ 57.5 µM) | > 25 µg/mL | > 25 µg/mL | > 25 µg/mL | 12.5 µg/mL (≈ 28.8 µM) | > 25 µg/mL | > 25 µg/mL | > 25 µg/mL | > 25 µg/mL | 12.5 µg/mL (≈ 28.8 µM) | CC(C)[C@@H](O)/C=C/[C@@H](C)[C@H]1C[C@@H](O)[C@H]2[C@@H]3C[C@H](O)[C@H]4C[C@@H](O)CC[C@]4(C)[C@H]3CC[C@@]21C [CERTONARDOSTEROL G] | 3.4 µg/mL (≈ 7.82 µM) | 3.6 µg/mL (≈ 8.28 µM) | 3.7 µg/mL (≈ 8.51 µM) | 3.6 µg/mL (≈ 8.28 µM) | 4 µg/mL (≈ 9.2 µM) | MIC (Salmonella typhimurium): > 25 µg/mL; MIC (Klebsiella aerogenes): > 25 µg/mL; MIC (Staphylococcus aureus [14]): > 25 µg/mL; MIC (Enterobacter cloacae [16]): > 25 µg/mL; MIC (Enterococcus faecium): > 25 µg/mL
3 | > 25 µg/mL | > 25 µg/mL | > 25 µg/mL | > 25 µg/mL | > 25 µg/mL | 25 µg/mL (≈ 59.4 µM) | > 25 µg/mL | > 25 µg/mL | > 25 µg/mL | 25 µg/mL (≈ 59.4 µM) | > 25 µg/mL | > 25 µg/mL | > 25 µg/mL | > 25 µg/mL | 25 µg/mL (≈ 59.4 µM) | CC(/C=C/[C@@H](C)[C@H]1C[C@@H](O)[C@H]2[C@@H]3C[C@H](O)[C@H]4C[C@@H](O)CC[C@]4(C)[C@H]3CC[C@@]21C)CO (stereo not given in full) [CERTONARDOSTEROL H] | 6.4 µg/mL (≈ 15.2 µM) | 9.4 µg/mL (≈ 22.3 µM) | 8.6 µg/mL (≈ 20.4 µM) | 7.1 µg/mL (≈ 16.9 µM) | 10.6 µg/mL (≈ 25.2 µM) | MIC (Salmonella typhimurium): > 25 µg/mL; MIC (Klebsiella aerogenes): > 25 µg/mL; MIC (Staphylococcus aureus [14]): > 25 µg/mL; MIC (Enterobacter cloacae [16]): > 25 µg/mL; MIC (Enterococcus faecium): > 25 µg/mL
4 | – | – | – | – | – | – | – | – | – | – | – | – | – | – | – | CC(/C=C/[C@@H](C)[C@H]1C[C@@H](O)[C@H]2[C@@H]3C[C@H](O)[C@H]4C(O)[C@@H](O)CC[C@]4(C)[C@H]3CC[C@@]21C)CCO (stereo not given in full) [CERTONARDOSTEROL L] | 4.3 µg/mL (≈ 9.54 µM) | 6 µg/mL (≈ 13.3 µM) | 4.5 µg/mL (≈ 9.99 µM) | 4.3 µg/mL (≈ 9.54 µM) | 4.2 µg/mL (≈ 9.32 µM) | –
5 | – | – | – | – | – | – | – | – | – | – | – | – | – | – | – | C[C@H](CO)[C@H](C)CC[C@@H](C)[C@H]1C[C@@H](O)[C@@H]2[C@]1(C)CC[C@@H]1[C@@]3(C)CC[C@H](O)[C@H](O)[C@@H]3[C@@H](O)C[C@]12O [CERTONARDOSTEROL M] | > 30 µg/mL | > 30 µg/mL | > 30 µg/mL | 30 µg/mL (≈ 62.2 µM) | > 30 µg/mL | –
6 | – | – | – | – | – | – | – | – | – | – | – | – | – | – | – | COc1cccc2c1C(=O)c1c(O)c3c(c(O)c1C2=O)C[C@@](O)(C(=O)CO)C[C@@H]3O[C@H]1C[C@H](N)[C@H](O)[C@H](C)O1 [DOXORUBICIN] | 0.02 µg/mL (≈ 0.0368 µM) | 0.17 µg/mL (≈ 0.313 µM) | 0.06 µg/mL (≈ 0.11 µM) | 0.02 µg/mL (≈ 0.0368 µM) | 0.03 µg/mL (≈ 0.0552 µM) | –

Row | SMILES | MIC (Pseudomonas aeruginosa [1]) | MIC (Escherichia coli [2]) | MIC (Escherichia coli [3]) | MIC (Pseudomonas aeruginosa [4]) | MIC (Staphylococcus aureus [5]) | MIC (Pseudomonas aeruginosa [6]) | MIC (Enterobacter cloacae [7]) | MIC (Escherichia coli [8]) | MIC (Klebsiella oxytoca) | MIC (Streptococcus pyogenes [9]) | MIC (Escherichia coli [10]) | MIC (Streptococcus pyogenes [11]) | MIC (Staphylococcus aureus [12]) | MIC (Escherichia coli [13]) | MIC (Pseudomonas aeruginosa [15]) | EC50 (SK-MEL-2) | EC50 (SK-OV-3) | EC50 (XF498) | EC50 (A549) | EC50 (HCT-15) | further results
7 | C[C@@H](O)[C@H]1C(=O)N2C(C(=O)O)=C(S[C@@H]3CN[C@H](C(=O)N(C)C)C3)[C@H](C)[C@H]12 [MEROPENEM] | 0.2 µg/mL (≈ 0.522 µM) | – | – | – | – | 0.1 µg/mL (≈ 0.261 µM) | – | – | – | 0.01 µg/mL (≈ 0.0261 µM) | – | 0.004 µg/mL (≈ 0.0104 µM) | – | – | 0.39 µg/mL (≈ 1.02 µM) | – | – | – | – | – | –
